“Also recorded” adds a separate entry of the source.
Tests used:
[1] = tested on: MDA-protein adducts; experiment: Proximal aortic lesion MDA adducts by immunofluorescence; type: in vivo, mouse; conditions: Ldlr−/− mice
From the text: The extent of atherosclerosis was examined both Oil-Red-O-stained cross-sections of the proximal aorta and by en face analysis^30. Briefly, cryosections of 10-micron thickness were cut from the region of the proximal aorta starting from the end of the aortic sinus and for 300 μm distally, according to the method of Paigen et al.^62. The Oil red-O staining of 15 serial sections from the root to ascending aortic region were used to quantify the Oil red-O-positive staining area per mouse. The mean from the 15 serial sections was applied for the aortic root atherosclerotic lesion size per mouse using the KS300 imaging system (Kontron Elektronik GmbH) as described^63, 64, 65. All other stains were done using sections that were 40 to 60 μm distal of the aortic sinus. For each mouse, 4 sections were stained and quantitation was done on the entire cross section of all 4 sections. For immunofluorescence staining, 5 μm cross-sections of the proximal aorta were fixed in cold acetone (Sigma), blocked in Background Buster (Innovex), incubated with indicated primary antibodies (MDA and CD68) at 4° C. for overnight. After incubation with fluorescent labeled secondary antibodies at 37 C for 1 hour, the nucleus was counterstained with Hoechst. Images were captured with a fluorescence microscope (Olympus IX81) and SlideBook 6 (Intelligent-Image) software and quantitated using ImageJ software (NIH)^66.

[2] = tested on: IL-1β, IL-6, TNF-α, SAA; experiment: Plasma/serum inflammatory cytokines by ELISA; type: in vivo, mouse
Procedure: The inflammatory cytokines including IL-1β (5A), IL-6 (5B), TNF-α (5C) and SAA (5D) were measured by ELISA in plasma from mice consuming a western diet for 16 weeks and treated with 2-HOBA, 4-HOBA, or vehicle. N=8 per group.*p<0.05, **p<0.01. ***p<0.001. One-way ANOVA with Bonferroni's post hoc test.
Serum IL-1β, IL-6 and TNF-α levels were measured by ELISA (R&D System). N=7 or 8 mice per group, N.S., One-way ANOVA with Bonferroni's post hoc test.

[3] = tested on: MDA; experiment: Plasma MDA content by TBARS assay; type: in vivo, mouse; conditions: Ldlr−/− mice, western diet 16 weeks; versus 4-HOBA or vehicle
Procedure: (§1) FIG. 21A-D show the effects of 2-HOBA on plasma and LDL MDA adducts in hypercholesterolemic Ldlr^−/− mice. (20A) The MDA content in plasma from Ldlr^−/− mice consuming a Western diet for 16 weeks and treated with 2-HOBA, 4-HOBA, or vehicle was measured by TBARS Assay(*p<0.05, **p<0.01). (20B) The levels of MDA adducts were measured from LDL isolated from the Ldlr^−/− mice by ELISA. N=10 per group, ***p<0.001. (20C) LDL was isolated from control and FH subjects (n=6) pre and post LDL apheresis and the MDA adduct content was measured by ELISA. (20D) LDL was isolated from 2-HOBA, 4-HOBA, or vehicle treated hypercholesterolemic Ldlr^−/− mice. WT peritoneal macrophages were incubated for 24 hrs with the LDL and the cellular cholesterol content was measured as described in methods. (20A-D) One-way ANOVA with Bonferroni's post hoc test).

[4] = tested on: MDA-LDL; experiment: MDA adducts in isolated LDL by ELISA; type: in vivo, mouse; conditions: Ldlr−/− mice
Procedure: as §1
The study was approved by the Vanderbilt University Institutional Review Board (IRB), and all participants gave their written informed consent. The human blood samples from patients with severe FH, who were undergoing LDL apheresis, and healthy controls were obtained using an IRB approved protocol. HDL and LDL were prepared from serum by Lipoprotein Purification Kits (Cell BioLabs, Inc.). Sandwich ELISA was used to measure plasma MDA-LDL and MDA-HDL levels following the manufacturer's instructions (Cell BioLabs, Inc.). Briefly, isolated LDL or HDL samples and MDA-Lipoprotein standards were added onto anti-MDA coated plates, and, after blocking, the samples were incubated with biotinylated anti-apoB or anti-ApoAI primary antibody. The samples were then incubated for 1 h with streptavidin-enzyme conjugate and 15 min with substrate solution. After stopping the reaction, the O.D. was measured at 450 nm wavelength. MDA-ApoAI was detected in mouse plasma by immunoprecipitation of ApoAI and western blotting. […] Proteins were visualized and quantitated by Odyssey 3.0 Quantification software (LI-COR).

[5] = tested on: WT peritoneal macrophages; experiment: Cholesterol enrichment of macrophages by LDL from treated mice; type: cell-based, mouse; conditions: LDL from 2-HOBA versus 4-HOBA or vehicle treated Ldlr−/− mice, 24 hrs
Procedure: as §1
MDA was prepared immediately before use by rapid acid hydrolysis of maloncarbonyl bis-(dimethylacetal) as described^31. Briefly, 20 μL of 1 M HCl was added to 200 μL of maloncarbonyl bis-(dimethylacetal), and the mixture was incubated for 45 min at room temperature. The MDA concentration was determined by absorbance at 245 nm, using the coefficient factor 13, 700 M^−1 cm^−1. […] The LDL samples were incubated for 24 h with macrophages and the cholesterol content of the cells was measured using an enzymatic cholesterol assay as described^61.

Compound: NCc1ccccc1O [2-HOBA, 2-hydroxybenzylamine]
- reduction of proximal aortic MDA adduct levels (immunofluorescence) ([1]; compared to 4-HOBA): 66.8%
- reduction of proximal aortic MDA adduct levels (immunofluorescence) ([1]; compared to vehicle alone): 68.5%
- cytokine levels (IL-1β, IL-6, TNF-α) ([2]; Ldlr−/− mice on chow diet, 1 g/L): no impact
- serum levels of IL-1β, IL-6, TNF-α, and serum amyloid A ([2]; Ldlr−/− mice, western diet 16 weeks, versus 4-HOBA or vehicle): decreased; also recorded: reduces
- plasma levels of MDA [3]: decreased
- MDA content in LDL [4]: reduced
- reduction of MDA adduct content in isolated LDL (ELISA) ([4]; compared to 4-HOBA): 54%
- reduction of MDA adduct content in isolated LDL (ELISA) ([4]; compared to vehicle): 57%
- ability of LDL from treated mice to enrich cells with cholesterol [5]: not different
